Columns and labels:
[1] = system: murine model of colitis induced by dextran sodium sulphate (DSS); experiment: Colitis induced by dextran sodium sulphate (DSS), murine model; format: in vivo; conditions: 25 mg/kg/day and 50 mg/kg/day p.o.
Description: In particular, oral administration (p.o.) of INF176 at the doses of 25 mg/kg/day and 50 mg/kg/day gave rise to an improvement in the systemic and tissue parameters associated with colitis (FIGS. 2-3).

colon of SAMP8 animals = experiment: Colon contractions elicited by electrical stimuli (in vitro), SAMP8; parameters: species or system mice
NLRP3 inflammasome [2] = target: T1, NLRP3 inflammasome (Homo sapiens, UniProt Q96P20); experiment: IL-1β release (ELISA) from differentiated THP-1 cells stimulated with LPS/ATP; format: cell-based; conditions: at the maximum concentration tested (FIG. 1B)
T1 construct: The THP-1 cells were differentiated into macrophages by treating them with PMA 50 nM; endogenous in cells; host or cells: THP-1 (human monocytic leukaemia line), PMA-differentiated, primed with LPS, triggered with ATP
T1 sequence (Q96P20 whole entry): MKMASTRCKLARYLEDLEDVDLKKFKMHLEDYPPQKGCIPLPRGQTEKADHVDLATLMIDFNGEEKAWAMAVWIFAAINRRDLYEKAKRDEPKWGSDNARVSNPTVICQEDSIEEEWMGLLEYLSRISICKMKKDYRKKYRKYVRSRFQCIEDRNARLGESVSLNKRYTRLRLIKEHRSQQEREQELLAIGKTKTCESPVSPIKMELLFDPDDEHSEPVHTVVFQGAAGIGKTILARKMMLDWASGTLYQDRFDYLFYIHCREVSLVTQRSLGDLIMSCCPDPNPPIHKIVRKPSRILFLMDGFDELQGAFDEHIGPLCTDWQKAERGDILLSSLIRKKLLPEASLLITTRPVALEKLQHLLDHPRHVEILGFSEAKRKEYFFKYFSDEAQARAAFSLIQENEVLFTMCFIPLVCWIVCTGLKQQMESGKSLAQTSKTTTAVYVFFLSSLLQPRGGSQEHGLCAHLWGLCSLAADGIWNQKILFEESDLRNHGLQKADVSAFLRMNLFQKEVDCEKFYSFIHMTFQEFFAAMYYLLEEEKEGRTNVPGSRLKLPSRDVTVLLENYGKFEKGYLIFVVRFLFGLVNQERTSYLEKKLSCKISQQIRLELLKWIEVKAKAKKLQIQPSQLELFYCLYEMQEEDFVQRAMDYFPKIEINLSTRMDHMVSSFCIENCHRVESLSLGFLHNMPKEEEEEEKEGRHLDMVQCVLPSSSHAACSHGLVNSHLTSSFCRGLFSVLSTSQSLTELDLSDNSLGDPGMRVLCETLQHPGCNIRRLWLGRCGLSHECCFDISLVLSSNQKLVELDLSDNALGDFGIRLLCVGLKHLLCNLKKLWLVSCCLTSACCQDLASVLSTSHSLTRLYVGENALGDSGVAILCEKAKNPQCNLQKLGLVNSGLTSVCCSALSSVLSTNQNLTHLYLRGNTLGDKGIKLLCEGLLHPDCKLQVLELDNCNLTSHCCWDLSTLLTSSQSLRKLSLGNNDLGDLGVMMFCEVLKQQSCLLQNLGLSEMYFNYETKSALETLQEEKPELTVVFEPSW
Description: (§1) THP-1 cells, a monocytic human cell line derived from the peripheral blood of a patient suffering from acute monocytic leukaemia (www.atcc.org), were cultured in RPMI 1640 medium (Aurogene, Rome, Italy), with the addition of foetal bovine serum (10%, Aurogene), L-glutamine (2 mM, Aurogene), penicillin (100 IU/ml, Aurogene) and streptomycin ([…], Aurogene). The medium was changed every 2-3 days, and the cells were maintained in an incubator at 37° C., with 5% CO2, and with suitable humidity.
The cells were seeded in 48-well plates (90.000 cells/well), and differentiated with phorbol 12-myristate 13-acetate (PMA—50 nM, 24 hours; Sigma-Aldrich). On the next day, the differentiated THP-1s were washed twice with the balanced saline solution phosphate-buffered saline (PBS), and stimulated with lipopolysaccharide (LPS) (10 μg/mL, 4 hours; Sigma-Aldrich), prepared in serum-free medium. […]
IL-1β release into the supernatant of cells treated as described above was determined with the Human IL-1 beta Uncoated ELISA kit (Invitrogen, Waltham, MA, USA), according to the manufacturer's instructions. […]
The interleukin levels were determined by measuring absorbance at X=450 nm, using a microplate reader (Victor X4—EnSight).

Cytotoxicity (MTT assay) = format: cell-based, human; conditions: human; THP-1 cells, 72 hours' incubation
Description: The THP-1 cells were seeded in a 96-well plate (15.000 cells/well) and incubated with the test compounds at four different concentrations (0.1, 1, 10 and 100 μM), operating in triplicate. The cells were placed in an incubator at 37° C., with 5% CO2, and cell viability was measured after 72 hours' incubation, using the MTT assay. This is a colorimetric assay, based on conversion of water-soluble 3-(4,5-dimethylthiazol-2-yl)-2,5-diphenyltetrazolium bromide (MTT; Sigma-Aldrich) to a violet-coloured insoluble formazan, by the mitochondrial dehydrogenase present in the live cells. The formazan is solubilised in acidified isopropanol, and the concentration is determined by measuring absorbance with a microplate reader (Victor X4—Ensight, PerkinElmer) at λ=570 nm. Viability was expressed as a percentage of the viability of the control cells, which were either untreated or treated with the carrier. The IC50 was calculated with the Graph Pad Prism software.

NLRP3 inflammasome [3] = target: T1, NLRP3 inflammasome; experiment: NLRP3-dependent pyroptosis (LDH release) in PMA-differentiated THP-1 cells stimulated with LPS/ATP; format: cell-based; conditions: compounds at 10 μM for 1 hour; differentiated THP-1, LPS 10 μg/mL 4 hours, ATP 1.5 hours; read-out: Pyroptosis inhibition (% ± SEM)
Description: as §1
The cells were seeded in 48-well plates (90.000 cells/well), and differentiated with phorbol 12-myristate 13-acetate (PMA—50 nM, 24 hours; Sigma-Aldrich). On the next day, the differentiated THP-1s were washed twice with the balanced saline solution phosphate-buffered saline (PBS), and stimulated with lipopolysaccharide (LPS) (10 μg/mL, 4 hours; Sigma-Aldrich), prepared in serum-free medium. After 4 hours the cells were incubated with the compounds at the concentration of 10 μM for 1 hour, operating in triplicate; INF176 and INF177 were tested at three different concentrations: […]. Finally, the cells were stimulated with ATP 5 mm for 1.5 hours. The supernatants were then harvested for the subsequent analyses.
LDH release into the supernatant obtained as described above was quantified using the CytoTox 96 nonradioactive cytotoxicity assay (Promega Corporation, Madison, […], USA), a colorimetric assay wherein LDH activity is measured with an NADH-dependent enzymatic reaction:
Briefly, an equal volume of CytoTox Reagent was added to the supernatant and, after 30 minutes' incubation, the reaction was stopped by adding the stop solution. The formazan concentration was determined by measuring absorbance, using a microplate reader (Victor X4—EnSight, PerkinElmer, Waltham, MA, USA), at λ=490 nm. Cell death was expressed according to the manufacturer's instructions.
The compound INF176 was tested to measure its ability to inhibit NLRP3-dependent cell pyroptosis in human macrophages, using the experimental protocol previously published [Cocco et al. 2017].
The THP-1 cells were differentiated into macrophages by treating them with PMA 50 nM (24 hours) and then with LPS (10 μg/mL) for 4 hours. The cells were treated with the compound (10 μM) for 1 hour. Pyroptosis was induced by treatment with ATP 5 mm. After 90 minutes, cell death was evaluated by measuring the LDH level in the cell supernatant using the CytoTox 96 Non-Radioactive Cytotoxicity Assay (Promega Corporation, Madison, […], USA).

SAMP8 mice = experiment: SAMP8 mice, model of neurodegenerative disorders (Morris test, brain markers); format: in vivo; conditions: SAMP8, 50 mg/kg/day p.o., 2 months
Description: Compound INF176 was tested in vivo in an animal model of mice with spontaneous accelerated senescence (SAMP8), used as a model of neurodegenerative disorders such as mild cognitive impairment (MCI), which in most cases evolve to Alzheimer's disease (AD).

SAMP8 animals = experiment: SAMP8 animals: colon transit and colon IL-1β; format: in vivo, mice

SMILES: CCOC(=O)C1CCCN(C(=O)/C(=C/c2ccccc2Cl)CSc2ccccc2)C1 (stereo not drawn) [INF176, ethyl (Z)-1-(3-(2-chlorophenyl)-2-((phenylthio)methyl)acryloyl)piperidine-3-carboxylate]
- body weight (weight loss) [1]: counteracts weight loss
- disease activity index (DAI) [1]: significantly reduces
- interleukin-1beta levels in colon tissues [1]: significantly reduces
- myeloperoxidase levels in colon tissues [1]: significantly reduces
- spleen weight [1]: counteracts weight loss and increased spleen weight
- cholinergic colon contractions (colon of SAMP8 animals; SAMP8, 50 mg/kg (FIG. 5)): significantly enhancing
- tachykininergic colon contractions (colon of SAMP8 animals; SAMP8, 50 mg/kg (FIG. 5)): significantly enhancing
- colon contractions elicited by electrical stimuli (colon of SAMP8 animals; SAMP8, 50 mg/kg (FIG. 5B)): significantly improves
- inhibition of IL-1beta release from human macrophages (NLRP3 inflammasome [2]): 35±1.2%
- IC50 at 72 h (Cytotoxicity (MTT assay)): 94.2 ± 6.9 µM
- inhibition at 10 µM (NLRP3 inflammasome [3]): 45.2 ± 7.2%
- cognitive decline (Morris test: escape latency, crossings in quadrant, entries into quadrant) (SAMP8 mice): significantly counteracts cognitive decline
- expression of p-tau protein in brain tissues (SAMP8 mice): significantly reduces expression of p-tau protein
- colon transit (pellets expelled in 1 hour) (SAMP8 animals; SAMP8, 50 mg/kg (FIG. 5A)): improves slowing of colon transit
- IL-1β levels in the colon (SAMP8 animals; SAMP8, 50 mg/kg (FIG. 6)): reduces the increase in IL-1β levels

Reference: patent US20240252477A1, “NLRP3 INFLAMMASOME-INHIBITING COMPOUNDS AND THE USE THEREOF” (UNIVERSITA' DEGLI STUDI DI TORINO (60%), priority 2021, published 2024)
